# From US20080269339A1, “COMBINED USE OF EGF PATHWAY INHIBITORS AND DIFFERENTIATION PROMOTING COMPOUNDS” (priority 2007, published 2008)
# System: Human keratinocytes
# Assay: Cornified envelope formation (terminal differentiation) in confluent human keratinocyte culture
# Format: cell-based
# Settings: for keratinocyte differentiation (percent of cornified envelopes): agent alone vs vehicle control, confluent keratinocytes, 5 days (FIG. 2, FIG. 3)
# Experimental: In this study, Keratinocyte Cell Culture-Neonatal foreskin kerinocytes, purchased from Lonza (Walkersville, Md., USA), were grown in keratinocyte-SFM (Gilbro-BRL, Gaithersburg, Md., USA). This complete medium consists of keratinocyte basal medium and supplements (Gibco-BRL), human combinant EGF (5 ng/mL) and bovine pituitary extract (50 μg protein/mL). The calcium concentration in this medium is 0.09 mM.
# Unless indicated in the description for a particular figure set forth below, confluent fifth passage keratinocytes were used, with treatments beginning 2 days after the last addition of complete medium. The media was changed and the cells were pretreated with PD153035 (300 nM) for two hours. Media was again changed to contain PD153035 (300 nM) and epidermal growth factor (10 ng/mL) and left for 24 hours. The media was changed a final time to basal media supplemented with 1 mM CaCl2 and 0.1% bovine serum albumin with the indicated chemical additions. The cells were incubated at 37° C., 5% CO2 for 5 days before the comified envelopes were scored. The vehicle, DMSO, was used as the control for both PD153035 and TCDD.
# In reference to FIG. 2, Human keratinocytes were grown to confluence and treated with vehicle of media (control), sodium butyrate, epidermal growth factor (EGF) or a combination of EGF and NAB for 5 days. Cornified envelope formation is an endpoint of terminal differentiation. The percent of comified envelopes was calculated by dividing the number of cornified envelopes by the number of cells (times 100).
# In FIG. 3, Human keratinocytes were grown to confluence and treated with vehicle of dimethylsulfoxide (DMSO), 2,3,7,8-tetrachlorodibenzo-p-dioxin (TCDD), epidermal growth factor (EFG) or a combination of EGF and TCDD for 5 days. Comified envelope formation is an endpoint of terminal cell differentiation. The percent of cornified envelopes was calculated by dividing the number of cornified envelopes by the number of cells (times 100).
# In FIG. 4, Human keratinocytes were grown to confluence and treated with vehicle of DMSO (−/−), sodium butyrate (NaB) alone (−/+); epidermal growth factor (EGF) alone (+/−) or a combination of EGF and NaB (+/+) with or without PD153035 for 5 days. Comified envelope formation is an endpoint of terminal cell differentiation. The average percent (n=3, +/−std dev) of cornified envelopes was calculated by dividing the number of cornified envelopes by the number of cells (times 100).
# In FIG. 5, Human keratinocytes were grown to confluence and treated with vehicle of DMSO (−/−), TCDD alone (−/+), epidermal growth factor (EGF) alone (+/−) or a combination of EGF and TCDD (+/+) with or without PD153035 for 5 days. Cornified envelope formation is an endpoint of terminal cell differentiation. The average percent (n=3, +/−std dev) of comified envelopes was calculated by dividing the number of cornified envelopes by the number of cells (times 100).
molecule,measurement,setting,value
COc1cc2ncnc(Nc3cccc(Br)c3)c2cc1OC [PD153035],effect on sodium butyrate mediated differentiation (percent of cornified envelopes),"PD153035 300 nM, in the presence of EGF 10 ng/mL, 5 days, n=3 (FIG. 4)",increasing sodium butyrate mediated differentiation
same,effect on TCDD-mediated differentiation (percent of cornified envelopes),"PD153035 300 nM, in the presence of EGF 10 ng/mL, 5 days, n=3 (FIG. 5)",increasing TCDD-mediated differentiation
"Clc1cc2c(cc1Cl)Oc1cc(Cl)c(Cl)cc1O2 [TCDD, 2,3,7,8-tetrachlorodibenzo-p-dioxin]",keratinocyte differentiation (percent of cornified envelopes),,increases in keratinocyte differentiation
CCCC(=O)[O-].[Na+] [sodium butyrate],keratinocyte differentiation (percent of cornified envelopes),,increases in keratinocyte differentiation
"EGF: epidermal growth factor, a growth factor supporting the proliferation of epithelial cells",effect on TCDD increase in keratinocyte differentiation (percent of cornified envelopes),"combination of EGF and TCDD, 5 days (FIG. 3)",inhibited
same,effect on sodium butyrate increase in keratinocyte differentiation (percent of cornified envelopes),"combination of EGF and sodium butyrate, 5 days (FIG. 2)",inhibited
